Source: US12545658B2, “Pyridine derivatives as calcium-activated chloride channel modulators” (TMEM16A LIMITED, priority 2019, dated 2026)

Biological target: T1, human TMEM16A (TMEM16Aabc variant) (Homo sapiens, UniProt Q5XXA6)
T1 construct: human TMEM16A (TMEM16Aabc variant)
T1 sequence (Q5XXA6 1-986): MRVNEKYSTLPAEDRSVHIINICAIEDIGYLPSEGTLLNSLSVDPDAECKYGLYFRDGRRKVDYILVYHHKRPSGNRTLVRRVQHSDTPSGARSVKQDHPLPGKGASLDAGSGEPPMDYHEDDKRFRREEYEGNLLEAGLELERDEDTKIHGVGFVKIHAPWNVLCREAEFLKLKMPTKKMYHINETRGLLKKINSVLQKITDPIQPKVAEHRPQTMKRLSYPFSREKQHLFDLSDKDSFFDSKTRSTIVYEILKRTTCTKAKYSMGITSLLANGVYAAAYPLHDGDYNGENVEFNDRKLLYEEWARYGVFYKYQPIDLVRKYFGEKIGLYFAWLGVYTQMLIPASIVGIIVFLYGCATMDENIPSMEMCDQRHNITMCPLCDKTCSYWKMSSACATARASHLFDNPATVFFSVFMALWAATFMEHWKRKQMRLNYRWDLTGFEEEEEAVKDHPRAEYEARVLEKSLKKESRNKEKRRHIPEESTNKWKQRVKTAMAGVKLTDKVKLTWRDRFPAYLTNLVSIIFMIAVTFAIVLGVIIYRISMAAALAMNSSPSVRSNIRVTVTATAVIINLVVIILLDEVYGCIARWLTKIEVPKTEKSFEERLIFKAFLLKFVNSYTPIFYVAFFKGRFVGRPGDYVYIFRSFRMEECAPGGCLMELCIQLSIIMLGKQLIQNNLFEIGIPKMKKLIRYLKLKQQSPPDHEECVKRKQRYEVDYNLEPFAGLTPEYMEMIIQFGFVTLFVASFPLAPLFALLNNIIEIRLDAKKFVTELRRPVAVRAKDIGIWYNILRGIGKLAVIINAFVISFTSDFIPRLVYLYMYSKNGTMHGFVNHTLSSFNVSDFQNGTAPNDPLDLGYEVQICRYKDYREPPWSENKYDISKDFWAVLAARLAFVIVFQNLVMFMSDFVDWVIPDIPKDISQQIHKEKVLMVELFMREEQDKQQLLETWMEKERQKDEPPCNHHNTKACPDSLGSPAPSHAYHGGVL
Test: Automated whole-cell patch clamp (QPatch) TMEM16A potentiator assay in FRT cells stably expressing human TMEM16A
Assay type: cell-based
Details: for QPatch TMEM16A % Potentiation @ 370 nM: 370 nM test compound; for QPatch TMEM16A % Potentiation @ 370 nM / QPatch TMEM16A % Potentation @ 3.3 μM: percentage increase of baseline TMEM16A current; for QPatch TMEM16A % Potentation @ 3.3 μM: 3.3 μM test compound; for EC50: FRT-TMEM16A cells, whole-cell patch clamp, peak current at +70 mV, intracellular calcium at EC20
Experimental: Fisher rat thyroid (FRT) cells stably expressing human TMEM16A (TMEM16Aabc variant; Dr Luis Galietta, Insituto Giannina, Italy) were cultured in T-75 flasks in Hams F-12 media with Coon's modification (Sigma) supplemented with 10% (v/v) foetal bovine serum, penicillin-streptomycin (10,000 U/mL/10000 μg/mL), G-418 (750 μg/mL), L-glutamine (2 mM) and sodium bicarbonate solution (7.5% v/v). At ˜90% confluence cells were harvested for experiments by detachment with a 2:1 (v/v) mixture of Detachin (BMS Biotechnology) and 0.25% (w/v) trypsin-EDTA.
FRT-TMEM16A cells were whole-cell patch clamped using an automated planar patch clamp system (Qpatch, Sophion). Briefly, once high resistance (GOhm) seals were established between the cells and the planar recording array the patch was ruptured using suction pulses to establish the whole-cell recording configuration of the patch clamp technique. The assay employed the following solutions (all reagents Sigma): Intracellular solution (mM): N-methyl-D-glucamine 130, CaCl2 18.2, MgCl2 1, HEPES 10, EGTA 10, BAPTA 20, Mg-ATP 2, pH 7.25, 325 mOsm with sucrose.
Extracellular solution (mM): N-methyl-D-glucamine 130, CaCl2 2, MgCl2 1, HEPES 10, pH 7.3, 320 mOsm with sucrose.
The intracellular solution buffers intracellular calcium at levels required to give ˜20% activation of the maximal TMEM16A mediated current (EC20 for calcium ions). Cells were voltage clamped at a holding potential of −70 mV and a combined voltage step (to +70 mV)/ramp (−90 my to +90 mV) was applied at 0.05 Hz. After a period of current stabilisation test compounds, solubilised in 100% (v/v) DMSO and subsequently diluted into extracellular solution, were applied to generate a cumulative concentration response curve. Each concentration of test compound was incubated for 5 minutes before addition of the next concentration. After the final concentration was tested a supramaximal concentration of either a known active positive modulator or the TMEM16A inhibitor, CaCCinhA01 (Del La Fuente et al, 2008) was added to define the upper and lower limits of the assay.
Compound activity was quantified by measuring the increase in current upon compound addition and expressing this as a percentage increase of baseline TMEM16A current level.
In FIG. 1, IBL equals baseline current, I[#1] equals the peak current during test compound concentration 1 incubation period and so on.
Peak TMEM16A current at +70 mV was plotted as a function of time over the assay period. Baseline current (IBL) was measured after a period of stabilisation. The increase in current for each compound addition was determined by taking the peak current during the incubation period and subtracting the current from the previous recording period and then expressing this as a percentage of the baseline current (% potentiation). For test compound concentration 1 in FIG. 1 this is: (I[#1]−IBL/IBL)×100 For each additional concentration tested the increase in current was determined by subtracting the current from the previous incubation period and normalising the baseline value—for test concentration 2 in FIG. 1 this is: (I[#2]−I[#1])/IBL)×100 The values for each test concentration were plotted as a cumulative function of concentration eg. for test concentration two this would be the sum of the peak changes measured during concentration one plus concentration two.

Structure (SMILES)	QPatch TMEM16A % Potentiation @ 370 nM [%]	QPatch TMEM16A % Potentation @ 3.3 μM [%]	EC50 [nM]	EC50 compared with Compound B (indole compounds versus comparator Compound B)	maximum potentiation of TMEM16A compared with Compound B (versus comparator Compound B)
C#CC(C)(C)NC(=O)c1cc(NC(=O)Cc2cccc3[nH]ncc23)ccn1 [Compound A, reference compound]	43	223	1930		
C#CC(C)(C)NC(=O)c1cc(NC(=O)Cc2ccc3cc[nH]c3c2)ccn1 [Example 1, N-(1,1-Dimethylprop-2-ynyl)-4-[[2-(1H-indol-6-yl)acetyl]amino]pyridine-2-carboxamide]	50	38	20	lower EC50 values than Compound B	
O=C(Cc1ccc2cc[nH]c2c1)Nc1ccnc(C(=O)NC2(C(F)(F)F)CC2)c1 [Example 1.1, 4-[[2-(1H-indol-6-yl)acetyl]amino]-N-[1-(trifluoromethyl)cyclopropyl]pyridine-2-carboxamide]	145	173	70		improved maximum potentiation of TMEM16A
CC(C)(C)NC(=O)c1cc(NC(=O)Cc2ccc3cn[nH]c3c2)ccn1 [Example 2, N-tert-Butyl-4-[[2-(1H-indazol-6-yl)acetyl]amino]pyridine-2-carboxamide]	87	131	180		
C#CC(C)(C)NC(=O)c1cc(NC(=O)Cc2ccc3cn[nH]c3c2)ccn1 [Example 3, N-(1,1-Dimethylprop-2-ynyl)-4-[[2-(1H-indazol-6-yl)acetyl]amino]pyridine-2-carboxamide]	68	96	20		
C#CC1(NC(=O)c2cc(NC(=O)Cc3ccc4cn[nH]c4c3)ccn2)CCCC1 [Example 4, N-(1-Ethynylcyclopentyl)-4-[[2-(1H-indazol-6-yl)acetyl]amino]pyridine-2-carboxamide]	96	237	10		
CC(C)(NC(=O)c1cc(NC(=O)Cc2ccc3cn[nH]c3c2)ccn1)C(F)(F)F [Example 4.1, 4-[[2-(1H-Indazol-6-yl)acetyl]amino]-N-(2,2,2-trifluoro-1,1-dimethyl-ethyl)pyridine-2-carboxamide]	96	118	90		
O=C(Cc1ccc2cn[nH]c2c1)Nc1ccnc(C(=O)NC2(C(F)(F)F)CC2)c1 [Example 4.2, 4-[[2-(1H-Indazol-6-yl)acetyl]amino]-N-[1-(trifluoromethyl)cyclopropyl]pyridine-2-carboxamide]	112	155	100		
CC1(NC(=O)c2cc(NC(=O)Cc3ccc4cn[nH]c4c3)ccn2)CC(F)(F)C1 [Example 4.3, N-(3,3-Difluoro-1-methyl-cyclobutyl)-4-[[2-(1H-indazol-6-yl)acetyl]amino]pyridine-2-carboxamide]	173	226	50		
CC(C)(NC(=O)c1cc(NC(=O)Cc2ccc3cn[nH]c3c2)ccn1)C(F)F [Example 5, N-(2,2-Difluoro-1,1-dimethyl-ethyl)-4-[[2-(1H-indazol-6-yl)acetyl]amino] pyridine-2-carboxamide]	80	104	110		
O=C(Cc1ccc2cn[nH]c2c1)Nc1ccnc(C(=O)NC2(C(F)(F)F)CCC2)c1 [Example 5.1, 4-[[2-(1H-Indazol-6-yl)acetyl]amino]-N-[1-(trifluoromethyl)cyclobutyl]pyridine-2-carboxamide]	76	110	150		
O=C(Cc1ccc2cn[nH]c2c1)Nc1ccnc(C(=O)NC2CCCC2(F)F)c1 (centres unmarked) [Example 5.3, N-(2,2-Difluorocyclopentyl)-4-[[2-(1H-indazol-6-yl)acetyl]amino]pyridine-2-carboxamide]	69	113	250		
CC(C)(C)NC(=O)c1cc(NC(=O)Cc2cc3[nH]ncc3cc2F)ccn1 [Example 6, N-tert-Butyl-4-[[2-(5-fluoro-1H-indazol-6-yl)acetyl]amino]pyridine-2-carboxamide]	91	164	230		
O=C(Cc1cc2[nH]ncc2cc1F)Nc1ccnc(C(=O)NC2(C(F)(F)F)CC2)c1 [Example 6.1, 4-[[2-(5-Fluoro-1H-indazol-6-yl)acetyl]amino]-N-[1-(trifluoromethyl)cyclopropyl]pyridine-2-carboxamide]	107	153	140		
O=C(Cc1cc2[nH]ncc2cc1F)Nc1ccnc(C(=O)NC2CCCC2(F)F)c1 (centres unmarked) [Example 6.2, N-(2,2-Difluorocyclopentyl)-4-[[2-(5-fluoro-1H-indazol-6-yl)acetyl]amino]pyridine-2-carboxamide]	46	70	310		
O=C(Cc1cc(Cl)c2cn[nH]c2c1)Nc1ccnc(C(=O)NC2(C(F)(F)F)CC2)c1 [Example 6.3, 4-[[2-(4-Chloro-1H-indazol-6-yl)acetyl]amino]-N-[1-(trifluoromethyl)cyclopropyl]pyridine-2-carboxamide]	172	220	110		
C#CC1(NC(=O)c2cc(NC(=O)Cc3cc(Cl)c4cn[nH]c4c3)ccn2)CCCC1 [Example 6.4, 4-[[2-(4-Chloro-1H-indazol-6-yl)acetyl]amino]-N-(1-ethynylcyclopentyl) pyridine-2-carboxamide]	55	78	20		
CC(C)(C)NC(=O)c1cc(NC(=O)Cc2cc(F)c3cn[nH]c3c2)ccn1 [Example 7, N-tert-Butyl-4-[[2-(4-fluoro-1H-indazol-6-yl)acetyl]amino]pyridine-2-carboxamide]	88	95	70		
